# Test results published in the supplement of paper PMC10307832.
# Assays:
# Assay in all cases: relative viability (nuclei count vs DMSO), 5 days (fraction); higher = more cells survive
# [1] = system: HCC-78
# Method in brief: (§1)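 Medians of duplicate plates are given as relative viability. That measure is the nuclei count in treated wells divided by the count in vehicle wells. Counts were taken on 4× images of lung cancer cell lines in 1536-well plates, 5 days after pin-tool dosing the day after seeding with one drug alone or a fixed anchor-drug dose plus five library-drug doses (not always all listed) in √10 steps.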
# [2] = system: NCI-H2228
# Method in brief: as §1
# [3] = system: NCI-H460
# Method in brief: as §1
# [4] = system: NCI-H358
# Method in brief: as §1
# [5] = system: RERF-LC-KJ
# Method in brief: as §1
# [6] = system: NCI-H2347
# Method in brief: as §1
# [7] = system: NCI-H1734
# Method in brief: as §1
# [8] = system: PC-3 [JPC-3]
# Method in brief: as §1
# [9] = system: LXF-289
# Method in brief: as §1
# [10] = system: HOP-62
# Method in brief: as §1
# [11] = system: NCI-H647
# Method in brief: as §1
# [12] = system: A-427
# Method in brief: as §1
# [13] = system: SW 1573
# Method in brief: as §1
# [14] = system: LOU-NH91
# Method in brief: as §1
# [15] = system: LC-2-ad
# Method in brief: as §1
# [16] = system: NCI-H1975
# Method in brief: as §1
# [17] = system: NCI-H1915
# Method in brief: as §1
# [18] = system: NCI-H1792
# Method in brief: as §1
# [19] = system: NCI-H2126
# Method in brief: as §1
# [20] = system: SK-LU-1
# Method in brief: as §1
# [21] = system: HCC-15
# Method in brief: as §1
# [22] = system: NCI-H1755
# Method in brief: as §1
smiles,measurement,setting,value
C[C@@H]1CN(CC(=O)Nc2ccc3c(c2)Cc2cccc(-c4cc(=O)cc(N5CCOCC5)o4)c2S3)C[C@H](C)O1 + C[C@]1(O)C[C@@H](c2nc(-c3ccc4ccc(-c5ccccc5)nc4c3)c3c(N)nccn32)C1 [Linsitinib] (partner 1 µM),relative viability,[1]; first compound 0.04 µM,0.485
same,relative viability,[1]; first compound 0.1265 µM,0.461
same,relative viability,[1]; first compound 0.4 µM,0.344
same,relative viability,[1]; first compound 4 µM,0.461
same,relative viability,[2]; first compound 0.04 µM,0.685
same,relative viability,[2]; first compound 0.1265 µM,0.731
same,relative viability,[2]; first compound 0.4 µM,0.34
same,relative viability,[2]; first compound 4 µM,0.334
same,relative viability,[3]; first compound 0.04 µM,0.858
same,relative viability,[3]; first compound 0.1265 µM,0.726
same,relative viability,[3]; first compound 0.4 µM,0.682
same,relative viability,[3]; first compound 4 µM,0.371
same,relative viability,[4]; first compound 0.04 µM,0.854
same,relative viability,[4]; first compound 0.1265 µM,0.733
same,relative viability,[4]; first compound 0.4 µM,0.703
same,relative viability,[4]; first compound 4 µM,0.487
same,relative viability,[5]; first compound 0.04 µM,0.922
same,relative viability,[5]; first compound 0.1265 µM,0.907
same,relative viability,[5]; first compound 0.4 µM,0.91
same,relative viability,[5]; first compound 4 µM,0.774
same,relative viability,[6]; first compound 0.04 µM,0.883
same,relative viability,[6]; first compound 0.1265 µM,1.05
same,relative viability,[6]; first compound 0.4 µM,1.01
same,relative viability,[6]; first compound 4 µM,1.02
same,relative viability,[7]; first compound 0.04 µM,1.01
same,relative viability,[7]; first compound 0.1265 µM,0.85
same,relative viability,[7]; first compound 0.4 µM,0.801
same,relative viability,[7]; first compound 4 µM,0.92
same,relative viability,[8]; first compound 0.04 µM,1.06
same,relative viability,[8]; first compound 0.1265 µM,0.993
same,relative viability,[8]; first compound 0.4 µM,0.952
same,relative viability,[8]; first compound 4 µM,0.868
same,relative viability,[9]; first compound 0.04 µM,0.981
same,relative viability,[9]; first compound 0.1265 µM,0.983
same,relative viability,[9]; first compound 0.4 µM,1.02
same,relative viability,[9]; first compound 4 µM,0.933
same,relative viability,[10]; first compound 0.04 µM,0.93
same,relative viability,[10]; first compound 0.1265 µM,0.945
same,relative viability,[10]; first compound 0.4 µM,0.897
same,relative viability,[10]; first compound 4 µM,0.947
same,relative viability,[11]; first compound 0.04 µM,1.28
same,relative viability,[11]; first compound 0.1265 µM,1.12
same,relative viability,[11]; first compound 0.4 µM,0.926
same,relative viability,[11]; first compound 4 µM,0.76
same,relative viability,[12]; first compound 0.04 µM,1.23
same,relative viability,[12]; first compound 0.1265 µM,1.14
same,relative viability,[12]; first compound 0.4 µM,1.12
same,relative viability,[12]; first compound 4 µM,1.11
same,relative viability,[13]; first compound 0.04 µM,0.814
same,relative viability,[13]; first compound 0.1265 µM,0.914
same,relative viability,[13]; first compound 0.4 µM,0.646
same,relative viability,[13]; first compound 4 µM,0.771
same,relative viability,[14]; first compound 0.04 µM,1.02
same,relative viability,[14]; first compound 0.1265 µM,0.956
same,relative viability,[14]; first compound 0.4 µM,0.906
same,relative viability,[14]; first compound 4 µM,0.93
same,relative viability,[15]; first compound 0.04 µM,0.798
same,relative viability,[15]; first compound 0.1265 µM,0.895
same,relative viability,[15]; first compound 0.4 µM,0.839
same,relative viability,[15]; first compound 4 µM,0.719
same,relative viability,[16]; first compound 0.04 µM,0.895
same,relative viability,[16]; first compound 0.1265 µM,0.866
same,relative viability,[16]; first compound 0.4 µM,0.81
same,relative viability,[16]; first compound 4 µM,0.8
same,relative viability,[17]; first compound 0.04 µM,1.05
same,relative viability,[17]; first compound 0.1265 µM,1.07
same,relative viability,[17]; first compound 0.4 µM,1.13
same,relative viability,[17]; first compound 4 µM,1.12
same,relative viability,[18]; first compound 0.04 µM,0.503
same,relative viability,[18]; first compound 0.1265 µM,0.519
same,relative viability,[18]; first compound 0.4 µM,0.564
same,relative viability,[18]; first compound 4 µM,0.425
same,relative viability,[19]; first compound 0.04 µM,0.765
same,relative viability,[19]; first compound 0.1265 µM,0.762
same,relative viability,[19]; first compound 0.4 µM,0.707
same,relative viability,[19]; first compound 4 µM,0.722
same,relative viability,[20]; first compound 0.04 µM,1.18
same,relative viability,[20]; first compound 0.1265 µM,1.19
same,relative viability,[20]; first compound 0.4 µM,1.27
same,relative viability,[20]; first compound 4 µM,0.835
same,relative viability,[21]; first compound 0.04 µM,0.85
same,relative viability,[21]; first compound 0.1265 µM,0.809
same,relative viability,[21]; first compound 0.4 µM,0.878
same,relative viability,[21]; first compound 4 µM,0.674
same,relative viability,[22]; first compound 0.04 µM,1.01
same,relative viability,[22]; first compound 0.1265 µM,0.913
same,relative viability,[22]; first compound 0.4 µM,0.955
same,relative viability,[22]; first compound 4 µM,0.941
